Earlier results, collected in patent US7247752B2, “Methods for the synthesis of astaxanthin” (Cardax Pharmaceuticals, Inc., priority 2004, dated 2007).

Test system: transformed cells as well as normal prostatic epithelium
Details: alone and/or in combination with other antioxidants (e.g. vitamin E)

For CC(C)=CCC/C(C)=C/C=C/C(C)=C/C=C/C(C)=C/C=C/C=C(C)/C=C/C=C(C)/C=C/C=C(\C)CCC=C(C)C [lycopene], the “growth inhibition of cultured human cells” value is given as “growth inhibitory”.
